Results from ChEMBL document CHEMBL3425437, “Selective Inhibitors of Cyclin G Associated Kinase (GAK) as Anti-Hepatitis C Agents” (J Med Chem, 2015).

Assays:
[1] = target: T1, Cyclin-G-associated kinase (Homo sapiens, UniProt O14976); assay: Binding affinity to human GAK fused to T7 bacteriophage expressed in Escherichia coli BL21 after 1 hr by qPCR analysis
T1 sequence (O14976 whole entry): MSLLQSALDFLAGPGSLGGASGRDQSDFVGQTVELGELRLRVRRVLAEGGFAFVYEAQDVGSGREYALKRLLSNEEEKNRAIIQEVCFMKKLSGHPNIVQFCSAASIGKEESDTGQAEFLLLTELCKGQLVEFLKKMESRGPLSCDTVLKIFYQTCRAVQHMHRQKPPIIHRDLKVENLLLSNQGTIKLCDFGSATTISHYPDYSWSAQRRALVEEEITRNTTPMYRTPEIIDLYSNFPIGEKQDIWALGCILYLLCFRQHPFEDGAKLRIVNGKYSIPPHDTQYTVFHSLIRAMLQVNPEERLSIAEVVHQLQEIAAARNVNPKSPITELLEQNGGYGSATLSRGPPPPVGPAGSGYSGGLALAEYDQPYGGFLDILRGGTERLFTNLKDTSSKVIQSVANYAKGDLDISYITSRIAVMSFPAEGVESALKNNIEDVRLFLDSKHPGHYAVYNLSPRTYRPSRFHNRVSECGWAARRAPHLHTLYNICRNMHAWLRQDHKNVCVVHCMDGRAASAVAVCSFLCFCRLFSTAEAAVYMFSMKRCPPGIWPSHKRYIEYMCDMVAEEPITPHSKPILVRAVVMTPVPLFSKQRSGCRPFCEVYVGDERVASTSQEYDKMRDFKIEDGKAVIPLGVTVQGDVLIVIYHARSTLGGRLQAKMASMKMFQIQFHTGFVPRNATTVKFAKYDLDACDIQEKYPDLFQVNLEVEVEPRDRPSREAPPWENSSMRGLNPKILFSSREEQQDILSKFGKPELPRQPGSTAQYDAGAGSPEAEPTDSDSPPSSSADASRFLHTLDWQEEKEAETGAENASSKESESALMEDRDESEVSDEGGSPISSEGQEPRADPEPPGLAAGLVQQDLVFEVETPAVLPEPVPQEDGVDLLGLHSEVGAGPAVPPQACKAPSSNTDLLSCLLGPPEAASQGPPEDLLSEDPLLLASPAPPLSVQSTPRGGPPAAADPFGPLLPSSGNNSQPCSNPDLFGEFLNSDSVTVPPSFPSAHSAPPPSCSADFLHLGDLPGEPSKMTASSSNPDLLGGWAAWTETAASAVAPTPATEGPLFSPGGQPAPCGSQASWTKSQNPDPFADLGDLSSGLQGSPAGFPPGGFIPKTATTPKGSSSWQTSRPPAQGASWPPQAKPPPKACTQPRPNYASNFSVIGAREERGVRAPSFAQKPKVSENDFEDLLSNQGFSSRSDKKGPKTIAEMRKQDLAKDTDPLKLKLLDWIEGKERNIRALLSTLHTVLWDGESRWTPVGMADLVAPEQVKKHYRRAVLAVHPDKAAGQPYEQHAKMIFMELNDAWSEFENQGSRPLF

Hepatitis C virus [2] = assay: Antiviral activity against Hepatitis C virus J6/JFH infected in human Huh7.5 cells assessed as inhibition of viral replication measured after 72 hrs by luciferase reporter gene assay; assay type: functional, organism-based, Hepacivirus hominis; conditions: Huh-7, 72 h
[3] = Cytotoxicity against human Huh7.5 cells infected with Hepatitis C virus J6/JFH assessed as effect on cell viability after 72 hrs by Alamarblue assay; assay type: cell-based; conditions: huh-7, 72 h
Hepatitis C virus [4] = assay: Antiviral activity against Hepatitis C virus H77 pseudoparticle assessed as inhibition of viral entry into human Huh7.5 cells after 4 hrs by luciferase reporter gene assay; assay type: functional, cell-based, Hepacivirus hominis; conditions: genotype 1a H77, Huh-7, 4 h
[5] = Cytotoxicity against human Huh7.5 cells infected with Hepatitis C virus H77 pseudoparticle assessed as effect on cell viability after 4 hrs by Alamarblue assay; assay type: cell-based; conditions: huh-7, 4 h
Hepatitis C virus [6] = assay: Antiviral activity against Hepatitis C virus J6/JFH electroporated in human Huh7.5 cells assessed as inhibition of intracellular infectivity drug treated every 24 hrs for 72 hrs measured 72 hrs post electroporation by luciferase reporter gene assay; assay type: functional, organism-based, Hepacivirus hominis; conditions: Huh-7
Hepatitis C virus [7] = assay: Antiviral activity against Hepatitis C virus J6/JFH infected in human Huh7.5 cells assessed as inhibition of extracellular infectivity drug treated every 24 hrs for 72 hrs measured after 72 hrs by luciferase reporter gene assay; assay type: functional, organism-based, Hepacivirus hominis; conditions: Huh-7
[8] = target: Dual specificity protein kinase CLK2 (Homo sapiens, UniProt P49760); assay: Binding affinity to human CLK2
Sequence of Dual specificity protein kinase CLK2 (P49760 whole entry): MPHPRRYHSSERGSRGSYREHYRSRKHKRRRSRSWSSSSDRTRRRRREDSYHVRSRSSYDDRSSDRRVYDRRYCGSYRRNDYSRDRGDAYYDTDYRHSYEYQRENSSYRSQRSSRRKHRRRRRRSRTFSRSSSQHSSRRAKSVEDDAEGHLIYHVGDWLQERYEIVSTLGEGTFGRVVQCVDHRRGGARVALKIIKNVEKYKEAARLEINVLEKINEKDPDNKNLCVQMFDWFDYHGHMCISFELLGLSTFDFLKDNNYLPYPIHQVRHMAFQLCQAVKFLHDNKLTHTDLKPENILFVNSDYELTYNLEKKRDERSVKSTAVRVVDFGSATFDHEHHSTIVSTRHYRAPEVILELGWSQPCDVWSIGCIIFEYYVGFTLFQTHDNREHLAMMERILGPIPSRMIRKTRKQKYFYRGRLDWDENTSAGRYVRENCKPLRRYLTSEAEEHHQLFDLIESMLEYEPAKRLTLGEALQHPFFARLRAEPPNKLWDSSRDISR

[9] = target: Macrophage colony-stimulating factor 1 receptor (Homo sapiens, UniProt P07333); assay: Binding affinity to human CSF1R
Sequence of Macrophage colony-stimulating factor 1 receptor (P07333 whole entry): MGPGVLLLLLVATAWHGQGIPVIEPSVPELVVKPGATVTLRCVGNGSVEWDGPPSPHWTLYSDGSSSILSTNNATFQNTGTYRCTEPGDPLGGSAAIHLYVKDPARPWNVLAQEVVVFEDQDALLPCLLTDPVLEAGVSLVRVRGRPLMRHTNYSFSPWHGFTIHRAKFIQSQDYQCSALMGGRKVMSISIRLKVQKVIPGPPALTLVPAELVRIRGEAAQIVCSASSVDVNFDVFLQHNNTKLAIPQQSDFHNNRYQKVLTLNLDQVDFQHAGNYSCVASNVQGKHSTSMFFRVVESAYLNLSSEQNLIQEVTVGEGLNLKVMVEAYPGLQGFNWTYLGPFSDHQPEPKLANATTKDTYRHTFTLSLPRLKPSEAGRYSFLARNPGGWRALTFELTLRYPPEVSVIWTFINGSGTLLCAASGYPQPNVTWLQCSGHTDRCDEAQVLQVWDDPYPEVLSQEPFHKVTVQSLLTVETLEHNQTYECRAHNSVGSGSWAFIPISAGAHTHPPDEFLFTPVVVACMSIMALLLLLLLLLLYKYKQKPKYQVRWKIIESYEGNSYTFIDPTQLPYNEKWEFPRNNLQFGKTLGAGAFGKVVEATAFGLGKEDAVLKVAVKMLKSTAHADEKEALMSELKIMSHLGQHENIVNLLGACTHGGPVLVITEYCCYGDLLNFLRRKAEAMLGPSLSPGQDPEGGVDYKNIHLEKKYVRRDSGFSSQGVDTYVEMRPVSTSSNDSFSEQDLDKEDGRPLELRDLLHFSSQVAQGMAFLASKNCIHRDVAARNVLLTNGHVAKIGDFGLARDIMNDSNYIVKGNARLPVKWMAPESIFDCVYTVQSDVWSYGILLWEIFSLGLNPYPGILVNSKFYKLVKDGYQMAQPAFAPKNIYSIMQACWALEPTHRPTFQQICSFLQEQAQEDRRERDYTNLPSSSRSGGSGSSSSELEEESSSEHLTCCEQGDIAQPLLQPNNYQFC

[10] = target: T2, Receptor-type tyrosine-protein kinase FLT3 (Homo sapiens, UniProt P36888); assay: Binding affinity to human FLT3
T2 sequence (P36888 whole entry): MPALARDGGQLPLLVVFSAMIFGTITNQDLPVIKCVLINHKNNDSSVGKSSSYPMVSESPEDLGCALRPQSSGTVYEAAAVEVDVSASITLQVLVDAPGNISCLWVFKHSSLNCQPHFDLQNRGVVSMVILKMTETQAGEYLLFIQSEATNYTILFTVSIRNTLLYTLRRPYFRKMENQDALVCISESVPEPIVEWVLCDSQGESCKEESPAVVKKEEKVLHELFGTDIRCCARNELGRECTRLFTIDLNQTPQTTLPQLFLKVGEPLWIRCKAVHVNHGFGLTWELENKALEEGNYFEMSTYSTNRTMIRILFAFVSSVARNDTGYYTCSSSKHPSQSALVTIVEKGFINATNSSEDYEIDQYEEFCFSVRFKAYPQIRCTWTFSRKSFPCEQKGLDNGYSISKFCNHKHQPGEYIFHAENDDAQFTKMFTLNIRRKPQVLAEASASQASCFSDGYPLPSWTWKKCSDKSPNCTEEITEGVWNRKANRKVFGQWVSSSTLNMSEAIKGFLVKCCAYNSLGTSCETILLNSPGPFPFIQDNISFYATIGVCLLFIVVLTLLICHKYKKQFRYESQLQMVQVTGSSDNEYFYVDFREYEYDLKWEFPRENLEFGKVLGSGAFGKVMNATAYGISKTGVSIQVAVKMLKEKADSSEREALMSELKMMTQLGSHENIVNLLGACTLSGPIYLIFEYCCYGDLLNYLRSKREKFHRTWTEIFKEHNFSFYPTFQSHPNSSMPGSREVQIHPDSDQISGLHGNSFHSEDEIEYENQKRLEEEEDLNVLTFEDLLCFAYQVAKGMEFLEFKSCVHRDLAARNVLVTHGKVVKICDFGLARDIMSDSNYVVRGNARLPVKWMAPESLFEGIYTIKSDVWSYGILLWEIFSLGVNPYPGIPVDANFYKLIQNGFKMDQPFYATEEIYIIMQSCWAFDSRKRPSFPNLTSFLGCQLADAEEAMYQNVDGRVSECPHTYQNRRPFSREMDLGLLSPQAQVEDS

[11] = target: Mast/stem cell growth factor receptor Kit (Homo sapiens, UniProt P10721); assay: Binding affinity to human KIT
Sequence of Mast/stem cell growth factor receptor Kit (P10721 whole entry): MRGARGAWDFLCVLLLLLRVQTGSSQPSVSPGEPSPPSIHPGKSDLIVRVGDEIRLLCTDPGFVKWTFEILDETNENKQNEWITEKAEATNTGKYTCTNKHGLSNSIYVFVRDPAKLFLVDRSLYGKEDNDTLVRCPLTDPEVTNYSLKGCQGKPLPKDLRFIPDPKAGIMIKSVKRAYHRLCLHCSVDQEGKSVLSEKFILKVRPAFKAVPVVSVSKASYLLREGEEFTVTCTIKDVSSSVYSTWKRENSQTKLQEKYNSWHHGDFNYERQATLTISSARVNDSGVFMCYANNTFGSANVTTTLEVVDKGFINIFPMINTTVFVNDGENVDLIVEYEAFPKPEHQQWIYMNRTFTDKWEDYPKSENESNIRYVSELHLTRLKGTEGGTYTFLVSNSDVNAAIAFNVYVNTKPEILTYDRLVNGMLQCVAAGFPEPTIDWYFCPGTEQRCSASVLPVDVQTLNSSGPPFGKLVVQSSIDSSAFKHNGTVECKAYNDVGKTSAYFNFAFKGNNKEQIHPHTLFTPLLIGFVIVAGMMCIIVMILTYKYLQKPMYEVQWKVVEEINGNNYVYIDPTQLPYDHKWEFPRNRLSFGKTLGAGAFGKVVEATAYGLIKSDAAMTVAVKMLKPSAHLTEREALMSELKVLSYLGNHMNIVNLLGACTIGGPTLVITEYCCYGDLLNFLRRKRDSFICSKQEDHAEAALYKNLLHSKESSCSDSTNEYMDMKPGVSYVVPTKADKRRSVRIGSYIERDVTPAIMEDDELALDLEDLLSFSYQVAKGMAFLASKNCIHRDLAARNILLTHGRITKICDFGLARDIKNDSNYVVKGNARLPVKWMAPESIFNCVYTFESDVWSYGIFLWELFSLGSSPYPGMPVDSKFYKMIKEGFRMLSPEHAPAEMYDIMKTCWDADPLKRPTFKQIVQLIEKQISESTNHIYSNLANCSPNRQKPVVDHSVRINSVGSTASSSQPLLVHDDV

[12] = target: T3, Dual specificity mitogen-activated protein kinase kinase 5 (Homo sapiens, UniProt Q13163); assay: Binding affinity to human MEK5
T3 sequence (Q13163 whole entry): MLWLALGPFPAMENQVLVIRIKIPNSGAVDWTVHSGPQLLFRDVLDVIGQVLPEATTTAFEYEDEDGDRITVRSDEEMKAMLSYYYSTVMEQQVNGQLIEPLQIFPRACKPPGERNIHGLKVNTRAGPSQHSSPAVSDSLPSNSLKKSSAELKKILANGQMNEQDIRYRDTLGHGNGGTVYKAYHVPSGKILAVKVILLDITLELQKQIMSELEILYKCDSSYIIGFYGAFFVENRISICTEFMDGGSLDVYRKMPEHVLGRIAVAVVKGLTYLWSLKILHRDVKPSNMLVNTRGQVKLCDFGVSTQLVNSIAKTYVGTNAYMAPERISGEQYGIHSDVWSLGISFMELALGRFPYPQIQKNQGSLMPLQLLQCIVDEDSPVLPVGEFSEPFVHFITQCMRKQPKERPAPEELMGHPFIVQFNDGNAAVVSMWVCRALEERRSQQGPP

[13] = target: Platelet-derived growth factor receptor alpha (Homo sapiens, UniProt P16234); assay: Binding affinity to human PDGFRalpha
Sequence of Platelet-derived growth factor receptor alpha (P16234 whole entry): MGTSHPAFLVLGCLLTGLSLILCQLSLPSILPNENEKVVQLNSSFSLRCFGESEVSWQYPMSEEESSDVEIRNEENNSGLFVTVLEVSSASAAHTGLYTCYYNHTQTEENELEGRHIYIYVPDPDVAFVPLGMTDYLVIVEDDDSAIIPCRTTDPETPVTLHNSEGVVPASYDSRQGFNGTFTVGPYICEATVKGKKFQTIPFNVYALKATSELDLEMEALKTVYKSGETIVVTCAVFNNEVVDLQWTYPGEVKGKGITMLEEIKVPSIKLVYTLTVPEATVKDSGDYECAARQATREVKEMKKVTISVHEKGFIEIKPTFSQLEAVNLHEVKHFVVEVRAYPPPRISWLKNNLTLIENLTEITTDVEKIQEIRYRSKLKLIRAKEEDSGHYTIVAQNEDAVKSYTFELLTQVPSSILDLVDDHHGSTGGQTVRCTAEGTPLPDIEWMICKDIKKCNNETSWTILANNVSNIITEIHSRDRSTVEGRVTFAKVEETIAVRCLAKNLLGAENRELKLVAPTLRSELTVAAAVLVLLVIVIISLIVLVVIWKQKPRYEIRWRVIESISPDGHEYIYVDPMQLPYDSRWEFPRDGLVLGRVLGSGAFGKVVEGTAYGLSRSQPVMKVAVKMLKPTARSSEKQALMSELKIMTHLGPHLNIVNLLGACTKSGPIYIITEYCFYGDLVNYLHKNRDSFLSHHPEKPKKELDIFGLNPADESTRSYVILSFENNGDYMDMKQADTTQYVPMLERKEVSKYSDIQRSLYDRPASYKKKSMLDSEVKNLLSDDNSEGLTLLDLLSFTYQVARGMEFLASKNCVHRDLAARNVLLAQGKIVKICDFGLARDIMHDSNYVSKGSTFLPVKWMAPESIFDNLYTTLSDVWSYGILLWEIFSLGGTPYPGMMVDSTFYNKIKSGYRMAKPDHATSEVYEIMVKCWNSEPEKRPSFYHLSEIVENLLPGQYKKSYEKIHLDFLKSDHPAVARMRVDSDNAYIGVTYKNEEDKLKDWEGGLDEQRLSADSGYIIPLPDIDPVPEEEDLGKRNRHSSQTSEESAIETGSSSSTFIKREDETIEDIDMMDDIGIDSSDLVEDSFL

[14] = target: Platelet-derived growth factor receptor beta (Homo sapiens, UniProt P09619); assay: Binding affinity to human PDGFRbeta
Sequence of Platelet-derived growth factor receptor beta (P09619 whole entry): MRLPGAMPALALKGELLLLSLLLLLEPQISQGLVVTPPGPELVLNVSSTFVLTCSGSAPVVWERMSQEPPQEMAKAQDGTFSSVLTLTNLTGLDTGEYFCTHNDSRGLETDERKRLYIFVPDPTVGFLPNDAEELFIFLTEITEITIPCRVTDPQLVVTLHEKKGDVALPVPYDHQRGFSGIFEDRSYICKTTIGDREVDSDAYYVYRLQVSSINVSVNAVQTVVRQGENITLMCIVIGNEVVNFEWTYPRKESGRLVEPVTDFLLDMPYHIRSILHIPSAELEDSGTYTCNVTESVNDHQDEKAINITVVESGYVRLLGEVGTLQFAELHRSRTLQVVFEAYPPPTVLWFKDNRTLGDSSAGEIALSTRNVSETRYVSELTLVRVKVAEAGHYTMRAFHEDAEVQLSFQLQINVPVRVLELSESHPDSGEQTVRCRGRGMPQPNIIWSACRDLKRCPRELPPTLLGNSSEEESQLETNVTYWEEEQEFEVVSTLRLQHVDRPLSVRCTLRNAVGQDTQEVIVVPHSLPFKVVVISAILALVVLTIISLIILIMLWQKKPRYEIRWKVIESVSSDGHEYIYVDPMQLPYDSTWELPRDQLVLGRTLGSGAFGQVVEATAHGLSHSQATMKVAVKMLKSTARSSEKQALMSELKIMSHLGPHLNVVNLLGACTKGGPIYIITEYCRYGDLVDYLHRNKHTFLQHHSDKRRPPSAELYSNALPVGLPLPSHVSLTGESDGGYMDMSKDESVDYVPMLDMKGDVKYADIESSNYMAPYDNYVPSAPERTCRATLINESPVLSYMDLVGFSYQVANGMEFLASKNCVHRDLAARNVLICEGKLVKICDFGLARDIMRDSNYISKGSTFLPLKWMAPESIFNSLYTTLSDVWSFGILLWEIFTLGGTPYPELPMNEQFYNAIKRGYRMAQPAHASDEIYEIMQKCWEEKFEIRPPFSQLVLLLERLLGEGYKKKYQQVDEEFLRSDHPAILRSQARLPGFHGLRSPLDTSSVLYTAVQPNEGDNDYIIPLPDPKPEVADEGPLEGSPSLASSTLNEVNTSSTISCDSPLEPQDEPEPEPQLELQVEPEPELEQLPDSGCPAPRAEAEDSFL

Work on COc1ccc(-c2cnc3c(N4CCOCC4)snc3c2)cc1OC yielded a Kd [1] of 52 nM.
c1cc(-c2cnc3c(N4CCOCC4)snc3c2)cs1 gave a Kd [1] of 42 nM.
Work on c1cc(-c2cnc3c(N4CCOCC4)snc3c2)co1 yielded a Kd [1] of 200 nM.
Work on COc1ccc(OC)c(-c2cnc3c(N4CCOCC4)snc3c2)c1 yielded a Kd [1] of 130 nM.
For COc1cc(OC)cc(-c2cnc3c(N4CCOCC4)snc3c2)c1, the Kd [1] was 72 nM.
COc1cc(-c2cnc3c(N4CCOCC4)snc3c2)cc(OC)c1OC gave an EC50 (Hepatitis C virus [2]) of 2550 nM, a CC50 [3] of 23300 nM and an EC50 (Hepatitis C virus [4]) of 3600 nM. For the same compound, the Activity [5] was “Non-toxic”, the EC50 (Hepatitis C virus [6]) was 1640 nM and the EC50 (Hepatitis C virus [7]) was 2130 nM. For the same compound, the Kd [8] was 710 nM, the Kd [9] was 320 nM and the Kd [10] was 110 nM. For the same compound, the Kd [11] was 29 nM, the Kd [12] was 150 nM and the Kd [13] was 220 nM. For the same compound, the Kd [14] was 70 nM.
Work on COc1cc(-c2cnc3c(N4CCOCC4)snc3c2)ccc1OC(C)=O yielded a Kd [1] of 18 nM.
In the case of COc1cc(-c2cnc3c(N4CCOCC4)snc3c2)ccc1N, the Activity [5] is reported as “Non-toxic”.
COc1cc(-c2cnc3c(N4CCOCC4)snc3c2)ccc1O showed a Kd [1] of 18 nM.
C#Cc1cccc(Nc2ncnc3cc(OCCOC)c(OCCOC)cc23)c1 [ERLOTINIB] gave an EC50 (Hepatitis C virus [2]) of 500 nM, an EC50 (Hepatitis C virus [6]) of 500 nM and an EC50 (Hepatitis C virus [7]) of 500 nM.
